Data published in ChEMBL document CHEMBL1154910, “Nitric oxide donors or nitrite counteract copper-[dithiocarbamate](2)-mediated tumor cell death and inducible nitric oxide synthase down-regulation: possible role of a nitrosyl-copper [dithiocarbamate](2) complex” (J Med Chem, 2010).
Active and inactive are the calls of the source. The rule behind the calls is not given here.

Key:
Format in all cases: functional, cell-based
C8161 [1] = test: Inhibition of [DEDTC]2-Cu-induced cytotoxicity against human C8161 cells at 50 uM
SK-BR-3 [2] = test: Inhibition of [DEDTC]2-Cu-induced cytotoxicity against human SK-BR-3 cells at 50 uM
SK-BR-3 [3] = test: Inhibition of [DEDTC]2-Cu-induced apoptosis in human SK-BR-3 cells assessed as PARP-cleavage at 50 uM
C8161 [4] = test: Inhibition of [DEDTC]2-Cu-induced iNOS-down regulation human C8161 cells

In the case of NCCN(CCN)N(O)N=O, the Activity (C8161 [1]) is reported as “Active”.
In the case of CC(=O)N[C@@H](C(=O)O)C(C)(C)SN=O, the Activity (C8161 [1]) is reported as “Active”, the Activity (SK-BR-3 [2]) is reported as “Active” and the Activity (SK-BR-3 [3]) is reported as “Active”. For the same compound, the Activity (C8161 [4]) was “Active”.
